According to the supplement of paper PMC10307832:

Columns and labels:
Experiment in all cases: relative viability (nuclei count vs DMSO), 5 days (fraction); higher = more cells survive
VX-11e + Bortezomib = compound: CC1=CN=C(N=C1C2=CNC(=C2)C(=O)N[C@H](CO)C3=CC(=CC=C3)Cl)NC4=C(C=C(C=C4)F)Cl [VX-11e] + CC(C)C[C@H](NC(=O)[C@H](Cc1ccccc1)NC(=O)c1cnccn1)B(O)O [Bortezomib] (partner 0.002 µM)
Summary of the method: (§1)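 One day after seeding in 1536-well plates, lung cancer cell lines were dosed by pin tool. Dosing was either single-drug or a fixed anchor-drug dose plus five library-drug doses (not always all listed) in √10 steps. After 5 days, nuclei were stained in one fix-and-stain step and counted on 4× images, and relative viability is the nuclei count of treated wells over that of vehicle wells, given as the median of duplicate plates.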

VX-11e + Tozasertib = compound: CC1=CN=C(N=C1C2=CNC(=C2)C(=O)N[C@H](CO)C3=CC(=CC=C3)Cl)NC4=C(C=C(C=C4)F)Cl [VX-11e] + Cc1cc(Nc2cc(N3CCN(C)CC3)nc(Sc3ccc(NC(=O)C4CC4)cc3)n2)n[nH]1 [Tozasertib] (partner 0.1 µM)
Summary of the method: as §1

VX-11e + AZD7762 = compound: CC1=CN=C(N=C1C2=CNC(=C2)C(=O)N[C@H](CO)C3=CC(=CC=C3)Cl)NC4=C(C=C(C=C4)F)Cl [VX-11e] + NC(=O)Nc1cc(-c2cccc(F)c2)sc1C(=O)N[C@H]1CCCNC1 [AZD7762] (partner 0.2 µM)
Summary of the method: as §1

VX-11e + Decitabine = compound: CC1=CN=C(N=C1C2=CNC(=C2)C(=O)N[C@H](CO)C3=CC(=CC=C3)Cl)NC4=C(C=C(C=C4)F)Cl [VX-11e] + Nc1ncn([C@H]2C[C@H](O)[C@@H](CO)O2)c(=O)n1 [Decitabine] (partner 2 µM)
Summary of the method: as §1

Row | Cell Line | relative viability (VX-11e + Bortezomib; first compound 0.04 µM) | relative viability (VX-11e + Bortezomib; first compound 0.1265 µM) | relative viability (VX-11e + Bortezomib; first compound 1.265 µM) | relative viability (VX-11e + Bortezomib; first compound 4 µM) | relative viability (VX-11e + Tozasertib; first compound 0.04 µM) | relative viability (VX-11e + Tozasertib; first compound 0.1265 µM) | relative viability (VX-11e + Tozasertib; first compound 0.4 µM) | relative viability (VX-11e + Tozasertib; first compound 1.265 µM) | relative viability (VX-11e + Tozasertib; first compound 4 µM) | relative viability (VX-11e + AZD7762; first compound 0.04 µM) | relative viability (VX-11e + AZD7762; first compound 0.1265 µM) | relative viability (VX-11e + AZD7762; first compound 1.265 µM) | relative viability (VX-11e + AZD7762; first compound 4 µM) | relative viability (VX-11e + Decitabine; first compound 0.04 µM) | relative viability (VX-11e + Decitabine; first compound 0.1265 µM) | relative viability (VX-11e + Decitabine; first compound 1.265 µM) | relative viability (VX-11e + Decitabine; first compound 4 µM) | relative viability (VX-11e + Bortezomib; first compound 0.4 µM) | relative viability (VX-11e + Decitabine; first compound 0.4 µM) | relative viability (VX-11e + AZD7762; first compound 0.4 µM)
1 | LOU-NH91 | 0.494 | 0.502 | 0.486 | 0.457 | 0.807 | 0.647 | 0.384 | 0.593 | 0.618 | 0.746 | 0.805 | 0.8 | 0.725 | 0.829 | 0.777 | 0.85 | 0.768 |  |  | 
2 | HCC-15 | 1.1 | 1.07 | 0.794 | 0.428 | 0.428 | 0.35 | 0.306 | 0.153 | 0.172 | 1.41 | 1.18 | 1.11 | 0.769 | 0.641 | 0.603 | 0.338 | 0.274 | 0.754 | 0.225 | 
3 | HCC-827 | 1.11 | 1.1 | 1.2 | 1.02 | 0.396 | 0.401 | 0.421 | 0.401 | 0.347 | 0.162 | 0.222 | 0.349 | 0.21 | 0.266 | 0.32 | 0.431 | 0.324 | 1.09 | 0.342 | 0.212
4 | NCI-H1703 | 0.473 | 0.414 | 0.35 | 0.21 |  |  |  |  |  |  |  | 0.121 | 0.122 |  |  |  |  | 0.258 |  | 0.141
5 | NCI-H322M | 1.08 |  | 1.09 | 0.987 | 0.444 | 0.444 | 0.352 | 0.453 | 0.343 | 0.469 | 0.726 | 0.514 | 0.448 | 0.737 | 0.723 | 0.607 | 0.614 | 1.24 | 0.683 | 0.506
6 | SK-LU-1 | 1.01 | 0.718 | 0.895 | 0.452 | 0.348 | 0.298 |  | 0.338 | 0.194 |  |  |  |  | 0.619 | 0.589 | 0.668 | 0.308 |  | 0.472 | 
7 | NCI-H2087 | 0.863 | 0.639 | 0.921 | 0.287 | 0.28 | 0.208 |  | 0.203 | 0.167 | 1.51 | 1.37 | 1.24 | 0.583 | 0.318 | 0.295 | 0.182 | 0.158 | 0.582 |  | 
8 | 201T | 1.05 | 1.11 | 1.02 | 1.03 | 0.99 | 0.923 | 0.941 | 0.909 | 0.774 | 0.592 | 0.586 | 0.626 | 0.74 | 0.868 | 0.84 | 0.831 | 0.758 | 1.12 | 0.831 | 0.562
9 | NCI-H1975 | 0.475 | 0.372 | 0.281 | 0.178 | 0.695 | 0.526 | 0.228 | 0.216 | 0.124 | 0.657 | 0.721 | 0.57 | 0.378 | 0.42 | 0.388 | 0.364 | 0.226 | 0.301 | 0.336 | 0.562
10 | NCI-H2085 | 1.04 | 0.979 | 0.898 | 0.825 | 0.897 | 0.724 | 0.659 | 0.644 | 0.413 | 0.853 | 0.975 | 0.887 | 0.642 | 0.658 | 0.542 | 0.539 | 0.553 | 1.03 | 0.525 | 0.829
11 | BEN | 0.543 | 0.779 | 0.533 | 0.725 |  | 0.477 | 0.642 | 0.456 | 0.417 | 0.481 | 0.635 | 0.634 | 0.567 | 0.505 | 0.645 | 0.573 | 0.654 | 0.942 | 0.712 | 0.823
12 | SW 1573 | 0.812 | 0.854 | 0.826 | 0.64 | 0.237 | 0.21 | 0.224 | 0.154 | 0.11 |  |  |  |  | 0.384 | 0.446 | 0.372 | 0.22 | 1.02 | 0.363 | 
13 | NCI-H1793 |  |  |  |  | 0.345 | 0.293 |  | 0.228 | 0.133 |  | 0.361 | 0.516 | 0.191 |  | 0.406 | 0.516 | 0.351 |  |  | 
14 | RERF-LC-KJ | 1 | 1.04 | 1.03 | 0.894 | 0.529 | 0.452 | 0.564 | 0.457 | 0.29 | 0.572 | 0.876 | 0.903 | 0.839 | 0.707 | 0.703 | 0.807 | 0.62 |  | 0.592 | 0.498
15 | NCI-H1437 | 0.597 | 0.316 | 0.312 | 0.202 | 0.421 | 0.379 | 0.345 | 0.335 | 0.159 | 1.11 | 1.09 | 0.972 | 0.741 | 0.589 | 0.519 | 0.602 | 0.494 | 0.306 | 0.517 | 0.867
16 | NCI-H2009 | 1.08 | 0.944 | 0.254 | 0.201 | 0.714 | 0.64 | 0.591 | 0.4 | 0.171 |  |  |  |  | 0.377 | 0.394 | 0.293 | 0.244 | 0.797 | 0.369 | 
17 | NCI-H1395 |  |  |  |  | 0.75 | 0.688 | 0.689 | 0.781 | 0.547 | 0.377 | 0.394 | 0.385 | 0.365 | 0.734 | 0.721 | 0.695 | 0.62 |  |  | 
18 | PC-3 [JPC-3] | 0.91 | 0.828 | 0.993 | 0.719 | 0.892 | 0.863 | 0.829 | 0.926 | 0.729 | 0.697 | 0.653 | 0.701 | 0.711 | 0.839 | 0.813 | 0.788 | 0.705 | 0.803 | 0.809 | 0.685
19 | NCI-H2342 |  |  |  |  | 0.422 | 0.503 | 0.498 | 0.406 | 0.416 |  | 0.462 | 0.508 | 0.466 |  | 0.797 | 0.787 | 0.6 |  | 0.752 | 0.604
